Reference: ChEMBL document CHEMBL2331315, “Target- and mechanism-based therapeutics for neurodegenerative diseases: strength in numbers” (J Med Chem, 2013)
pIC50, pKi: −log10 of the molar value. Non-standard residues stand in square brackets, D forms with d. Residues, ends and D or L forms follow the SMILES beside them. dArg(NO2) = N=C(NCCC[C@@H](N)C(=O)O)N[N+](=O)[O-]

Key:
Canis familiaris = experiment: Antialzheimer activity in Beagle dog assessed as reduction in CSF amyloid beta level at 5 mg/kg, po after 9 hrs relative to control; type: functional, Canis lupus familiaris; set-up: scale not given: the % may be the effect or the level left
Homo sapiens [1] = species on record: Homo sapiens; experiment: Selectivity ratio of IC50 for human eNOS to IC50 for human nNOS
Nitric oxide synthase 1 [2] = biological target: Nitric oxide synthase 1 (Homo sapiens, UniProt P29475); experiment: Inhibition of human nNOS
Chain of Nitric oxide synthase 1 (Homo sapiens, UniProt P29475) (P29475 whole entry): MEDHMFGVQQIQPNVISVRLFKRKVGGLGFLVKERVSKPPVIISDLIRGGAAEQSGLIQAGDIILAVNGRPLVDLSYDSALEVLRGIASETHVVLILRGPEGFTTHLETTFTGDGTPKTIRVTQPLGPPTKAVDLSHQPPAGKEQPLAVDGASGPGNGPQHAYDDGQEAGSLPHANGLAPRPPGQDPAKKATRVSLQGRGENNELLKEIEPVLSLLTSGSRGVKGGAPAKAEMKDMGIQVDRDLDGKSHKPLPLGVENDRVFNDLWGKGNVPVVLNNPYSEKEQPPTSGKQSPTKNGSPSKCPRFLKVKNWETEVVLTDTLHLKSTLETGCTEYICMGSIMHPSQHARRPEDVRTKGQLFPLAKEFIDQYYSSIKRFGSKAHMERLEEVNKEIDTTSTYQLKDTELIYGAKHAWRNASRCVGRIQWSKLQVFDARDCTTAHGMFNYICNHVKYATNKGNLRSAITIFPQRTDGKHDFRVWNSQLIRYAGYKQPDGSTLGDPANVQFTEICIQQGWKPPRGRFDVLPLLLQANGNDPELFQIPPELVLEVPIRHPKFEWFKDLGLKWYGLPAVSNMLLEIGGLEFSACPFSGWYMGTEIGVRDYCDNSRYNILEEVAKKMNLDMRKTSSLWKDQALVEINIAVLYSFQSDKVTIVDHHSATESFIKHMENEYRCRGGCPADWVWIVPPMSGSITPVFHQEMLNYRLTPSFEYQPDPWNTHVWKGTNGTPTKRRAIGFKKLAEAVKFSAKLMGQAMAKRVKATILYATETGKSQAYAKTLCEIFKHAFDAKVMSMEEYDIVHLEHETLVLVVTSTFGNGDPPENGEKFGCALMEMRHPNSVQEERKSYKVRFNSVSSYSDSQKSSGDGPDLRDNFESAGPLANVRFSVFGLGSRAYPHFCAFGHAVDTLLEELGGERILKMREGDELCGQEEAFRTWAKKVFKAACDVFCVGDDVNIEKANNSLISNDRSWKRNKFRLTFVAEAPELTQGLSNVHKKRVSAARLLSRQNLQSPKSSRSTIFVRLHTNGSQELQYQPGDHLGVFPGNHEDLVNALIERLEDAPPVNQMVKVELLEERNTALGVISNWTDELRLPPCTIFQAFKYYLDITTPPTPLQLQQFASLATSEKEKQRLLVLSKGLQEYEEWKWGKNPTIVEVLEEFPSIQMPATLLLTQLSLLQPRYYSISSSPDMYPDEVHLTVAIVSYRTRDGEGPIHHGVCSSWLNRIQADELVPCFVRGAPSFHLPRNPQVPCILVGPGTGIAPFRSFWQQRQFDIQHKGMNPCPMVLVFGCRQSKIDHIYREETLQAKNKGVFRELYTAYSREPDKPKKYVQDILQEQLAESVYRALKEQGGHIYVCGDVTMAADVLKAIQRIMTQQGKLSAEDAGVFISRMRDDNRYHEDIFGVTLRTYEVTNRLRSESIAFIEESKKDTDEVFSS

[3] = Selectivity ratio of Ki for mouse iNOS to Ki for rat nNOS
[4] = Selectivity ratio of Ki for bovine eNOS to Ki for rat nNOS
[5] = Inhibition of bovine nNOS; set-up: species or system Bos taurus
Huntingtin = Huntingtin (Homo sapiens, UniProt P42858); experiment: Inhibition of HD exon 1 fusion protein with 51 glutamine residues (unknown origin) aggregation expressed in Escherichia coli SURE after 16 hrs by Western blotting analysis
Homo sapiens [6] = species on record: Homo sapiens; experiment: Selectivity ratio of IC50 for NTD-deleted GluN1/NTD-deleted GluN2D receptor (unknown origin) to IC50 for NTD-deleted GluN1/NTD-deleted GluN2A receptor (unknown origin)
[7] = biological target: Nitric oxide synthase, inducible (Homo sapiens, UniProt P35228); experiment: Inhibition of human iNOS
Chain of Nitric oxide synthase, inducible (P35228 whole entry): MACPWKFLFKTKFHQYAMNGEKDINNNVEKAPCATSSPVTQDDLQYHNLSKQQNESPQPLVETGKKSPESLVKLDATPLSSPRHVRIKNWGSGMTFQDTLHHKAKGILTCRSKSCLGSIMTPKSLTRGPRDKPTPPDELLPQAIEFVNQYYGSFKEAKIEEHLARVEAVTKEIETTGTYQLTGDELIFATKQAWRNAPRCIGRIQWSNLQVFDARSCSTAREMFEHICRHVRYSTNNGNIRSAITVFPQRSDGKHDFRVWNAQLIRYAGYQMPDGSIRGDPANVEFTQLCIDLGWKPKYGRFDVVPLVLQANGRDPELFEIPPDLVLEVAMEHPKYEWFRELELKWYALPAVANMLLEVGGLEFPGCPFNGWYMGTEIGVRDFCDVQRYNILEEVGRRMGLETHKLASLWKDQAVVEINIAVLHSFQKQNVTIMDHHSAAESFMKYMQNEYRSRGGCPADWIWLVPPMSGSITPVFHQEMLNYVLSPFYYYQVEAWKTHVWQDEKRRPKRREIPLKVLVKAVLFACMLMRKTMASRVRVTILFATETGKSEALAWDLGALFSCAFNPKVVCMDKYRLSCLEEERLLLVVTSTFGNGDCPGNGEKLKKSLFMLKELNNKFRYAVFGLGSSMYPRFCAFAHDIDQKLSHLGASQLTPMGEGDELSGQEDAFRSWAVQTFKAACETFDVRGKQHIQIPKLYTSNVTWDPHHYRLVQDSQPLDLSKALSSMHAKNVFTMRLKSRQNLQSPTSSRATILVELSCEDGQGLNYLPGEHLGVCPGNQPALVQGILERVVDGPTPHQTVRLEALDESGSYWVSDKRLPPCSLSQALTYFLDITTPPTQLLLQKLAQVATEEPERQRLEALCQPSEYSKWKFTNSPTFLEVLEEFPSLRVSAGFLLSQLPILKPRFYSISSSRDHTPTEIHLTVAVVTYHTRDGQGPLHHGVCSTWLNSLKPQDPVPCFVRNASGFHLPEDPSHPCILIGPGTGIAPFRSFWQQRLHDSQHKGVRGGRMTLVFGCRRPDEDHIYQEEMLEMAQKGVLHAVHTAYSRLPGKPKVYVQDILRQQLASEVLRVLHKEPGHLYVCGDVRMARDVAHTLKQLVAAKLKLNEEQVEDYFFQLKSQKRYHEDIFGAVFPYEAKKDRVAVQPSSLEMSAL

Nitric oxide synthase 3 = biological target: T1, Nitric oxide synthase 3 (Homo sapiens, UniProt P29474); experiment: Inhibition of human eNOS
T1 sequence (P29474 whole entry): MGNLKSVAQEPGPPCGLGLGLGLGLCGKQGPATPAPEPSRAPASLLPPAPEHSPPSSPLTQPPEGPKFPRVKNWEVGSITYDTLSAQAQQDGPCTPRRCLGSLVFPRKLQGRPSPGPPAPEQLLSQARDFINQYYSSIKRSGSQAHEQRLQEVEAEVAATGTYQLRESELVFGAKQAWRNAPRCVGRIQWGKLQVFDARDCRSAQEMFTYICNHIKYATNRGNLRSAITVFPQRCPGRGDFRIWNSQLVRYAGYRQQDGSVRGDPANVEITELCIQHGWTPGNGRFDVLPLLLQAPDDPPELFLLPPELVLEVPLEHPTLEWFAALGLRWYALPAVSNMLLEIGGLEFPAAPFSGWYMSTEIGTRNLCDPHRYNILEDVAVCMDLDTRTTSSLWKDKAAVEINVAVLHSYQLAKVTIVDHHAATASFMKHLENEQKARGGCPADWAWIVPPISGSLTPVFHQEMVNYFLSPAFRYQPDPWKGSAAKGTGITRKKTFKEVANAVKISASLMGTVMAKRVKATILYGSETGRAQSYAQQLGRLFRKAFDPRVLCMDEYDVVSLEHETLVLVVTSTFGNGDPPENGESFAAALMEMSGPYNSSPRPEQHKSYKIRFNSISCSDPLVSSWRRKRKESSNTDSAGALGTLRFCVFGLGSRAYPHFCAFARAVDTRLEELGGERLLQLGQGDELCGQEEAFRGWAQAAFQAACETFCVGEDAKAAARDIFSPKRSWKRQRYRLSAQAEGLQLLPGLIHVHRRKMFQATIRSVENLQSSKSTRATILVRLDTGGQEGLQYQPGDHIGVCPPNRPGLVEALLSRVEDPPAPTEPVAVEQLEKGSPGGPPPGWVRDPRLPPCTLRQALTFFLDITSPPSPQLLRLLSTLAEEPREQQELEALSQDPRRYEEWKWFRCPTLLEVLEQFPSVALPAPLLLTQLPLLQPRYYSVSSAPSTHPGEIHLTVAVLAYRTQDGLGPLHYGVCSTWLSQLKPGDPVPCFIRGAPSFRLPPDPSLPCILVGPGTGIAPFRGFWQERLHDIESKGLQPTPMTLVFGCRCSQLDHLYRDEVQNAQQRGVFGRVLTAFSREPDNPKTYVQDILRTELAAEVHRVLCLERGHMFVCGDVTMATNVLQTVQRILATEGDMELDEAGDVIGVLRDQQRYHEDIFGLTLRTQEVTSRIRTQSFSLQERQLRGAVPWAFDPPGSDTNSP

Nitric oxide synthase 1 [8] = biological target: Nitric oxide synthase 1 (Rattus norvegicus, UniProt P29476)
Chain of Nitric oxide synthase 1 (Rattus norvegicus, UniProt P29476) (P29476 whole entry): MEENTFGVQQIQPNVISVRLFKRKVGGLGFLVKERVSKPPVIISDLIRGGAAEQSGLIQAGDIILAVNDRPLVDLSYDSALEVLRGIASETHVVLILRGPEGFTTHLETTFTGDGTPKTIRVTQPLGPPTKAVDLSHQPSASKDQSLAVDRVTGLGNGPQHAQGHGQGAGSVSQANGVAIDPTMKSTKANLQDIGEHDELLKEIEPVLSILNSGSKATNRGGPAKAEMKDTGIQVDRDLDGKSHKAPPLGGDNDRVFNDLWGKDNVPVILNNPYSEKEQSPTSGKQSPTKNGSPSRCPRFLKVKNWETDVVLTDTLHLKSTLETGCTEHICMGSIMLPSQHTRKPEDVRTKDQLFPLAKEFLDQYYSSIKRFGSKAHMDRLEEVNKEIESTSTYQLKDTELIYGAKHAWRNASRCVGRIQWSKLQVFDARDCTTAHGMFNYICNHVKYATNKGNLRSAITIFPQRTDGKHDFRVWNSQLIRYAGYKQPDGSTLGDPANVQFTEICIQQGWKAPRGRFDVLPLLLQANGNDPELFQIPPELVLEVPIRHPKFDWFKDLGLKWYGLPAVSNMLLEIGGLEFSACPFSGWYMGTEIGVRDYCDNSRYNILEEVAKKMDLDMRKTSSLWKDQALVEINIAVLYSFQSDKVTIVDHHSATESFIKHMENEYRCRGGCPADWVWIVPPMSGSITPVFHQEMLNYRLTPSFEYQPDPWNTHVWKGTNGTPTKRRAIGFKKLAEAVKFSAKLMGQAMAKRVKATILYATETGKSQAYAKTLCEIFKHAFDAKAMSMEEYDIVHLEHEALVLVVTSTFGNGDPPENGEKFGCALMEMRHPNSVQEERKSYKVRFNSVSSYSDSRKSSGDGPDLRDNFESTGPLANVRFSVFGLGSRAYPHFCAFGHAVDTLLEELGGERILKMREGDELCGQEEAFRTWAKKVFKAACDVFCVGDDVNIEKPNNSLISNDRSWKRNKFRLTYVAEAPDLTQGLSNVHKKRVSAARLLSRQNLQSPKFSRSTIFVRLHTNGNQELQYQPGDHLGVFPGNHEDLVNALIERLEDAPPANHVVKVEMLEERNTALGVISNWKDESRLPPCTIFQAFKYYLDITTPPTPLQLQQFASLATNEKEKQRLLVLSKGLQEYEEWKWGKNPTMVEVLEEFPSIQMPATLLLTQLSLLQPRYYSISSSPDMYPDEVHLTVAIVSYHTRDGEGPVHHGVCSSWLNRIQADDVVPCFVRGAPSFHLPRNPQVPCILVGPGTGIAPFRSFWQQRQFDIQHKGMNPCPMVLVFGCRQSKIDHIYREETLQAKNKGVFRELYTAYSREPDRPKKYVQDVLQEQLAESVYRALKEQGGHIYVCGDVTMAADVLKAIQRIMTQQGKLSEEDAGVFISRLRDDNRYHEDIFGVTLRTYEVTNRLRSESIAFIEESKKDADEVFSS

Mus musculus = species on record: Mus musculus; experiment: Neuroprotective activity in amyotrophic lateral sclerosis mouse model expressing human SOD1 G93A mutant assessed as increase in life span relative to control; type: functional
Homo sapiens [9] = experiment: Neuroprotective activity in Parkinson disease patient assessed as reduction of L-DOPA-induced dyskinesia administered as infusion treated prior to L-DOPA-challenge relative to control; type: functional; set-up: scale not given: the % may be the effect or the level left
L-type calcium channel = L-type calcium channel (Mus musculus, UniProt Q01815+Q02789+Q99246+Q9JIS7); experiment: Inhibition of Voltage-dependent L-type calcium channel in mouse medium spiny neurons by whole cell patch clamp assay
[10] = Inhibition of NMDA receptor in mouse medium spiny neurons by whole cell patch clamp assay
Homo sapiens [11] = species on record: Homo sapiens; experiment: Selectivity ratio of IC50 for recombinant GluN2A/GluN2D receptor (unknown origin) to IC50 for GluN2C/GluN2D (unknown origin) receptor
[12] = Neuroprotective activity in rat Cortical neuron assessed as protection from glutamate-induced neurotoxicity treated after glutamate-challenge by lactate dehydrogenase assay; type: functional; settings: cortical neurone
[13] = biological target: Microtubule-associated protein tau (Homo sapiens, UniProt P10636); experiment: Inhibition of recombinant tau (unknown origin) aggregation
Chain of Microtubule-associated protein tau (P10636 whole entry): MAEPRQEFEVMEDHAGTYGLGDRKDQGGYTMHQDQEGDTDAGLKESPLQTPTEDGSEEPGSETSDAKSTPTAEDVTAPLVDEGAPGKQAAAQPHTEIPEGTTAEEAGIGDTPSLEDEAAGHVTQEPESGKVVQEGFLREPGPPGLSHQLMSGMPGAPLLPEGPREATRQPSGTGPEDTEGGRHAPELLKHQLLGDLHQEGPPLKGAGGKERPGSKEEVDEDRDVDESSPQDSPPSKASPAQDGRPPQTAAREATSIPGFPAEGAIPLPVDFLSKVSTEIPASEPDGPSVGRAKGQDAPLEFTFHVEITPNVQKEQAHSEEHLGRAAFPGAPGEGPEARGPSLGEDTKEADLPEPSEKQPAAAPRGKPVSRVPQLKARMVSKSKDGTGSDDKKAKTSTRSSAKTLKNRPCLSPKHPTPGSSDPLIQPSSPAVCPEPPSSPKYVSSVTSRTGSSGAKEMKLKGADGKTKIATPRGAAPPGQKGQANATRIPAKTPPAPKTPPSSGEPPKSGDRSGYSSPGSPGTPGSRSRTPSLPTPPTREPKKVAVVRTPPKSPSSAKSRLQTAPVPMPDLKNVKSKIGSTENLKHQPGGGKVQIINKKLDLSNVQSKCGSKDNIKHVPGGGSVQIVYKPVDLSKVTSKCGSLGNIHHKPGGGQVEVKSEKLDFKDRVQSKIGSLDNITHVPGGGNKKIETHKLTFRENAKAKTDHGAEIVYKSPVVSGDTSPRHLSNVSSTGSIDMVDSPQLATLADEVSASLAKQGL

With `C[C@@]1(c2cc(-c3cncnc3)c(F)cc2F)CCSC(N)=N1` [LY-2811376] the Activity (Canis familiaris) was 70%.
`CC(=O)CN1CCN(CCc2ccc(-c3cccc(N)n3)cc2)CC1` gave a Ratio IC50 (Homo sapiens [1]) of 6 and a pIC50 (Nitric oxide synthase 1 [2]) of 6.85.
`CN(C)CCOc1ccc(-c2cccc(N)n2)c2c1CCCC2` gave a Ratio IC50 (Homo sapiens [1]) of 50 and a pIC50 (Nitric oxide synthase 1 [2]) of 7.15.
With `C=CNC(=N)NCCC[C@H](N)C(=O)O` the Ratio Ki [3] was 11, the Ratio Ki [4] was 35 and the pKi [5] was 6.70.
Work on `N/N=C(\N)NCCC[C@H](N)C(=O)O` yielded a Ratio Ki [3] of 10, a Ratio Ki [4] of 8.3 and a pKi [5] of 6.52.
`N=C(Nc1ccc(CCNCCc2cccc(Cl)c2)cc1)c1cccs1` gave a Ratio IC50 (Homo sapiens [1]) of 100.
With `COC(=O)c1ccc(C(=O)Nc2nc3ccc(C(=O)Nc4ccccc4)cc3s2)cc1` the pIC50 (Huntingtin) was 5.92.
Compound `O=C(O)c1cc2cc(Br)ccc2oc1=O` has a Ratio IC50 (Homo sapiens [6]) of 23.
For `NC(=Nc1ccc(CCNCCc2cccc(Cl)c2)cc1)c1cccs1`, the pIC50 [7] was 5.30, the pIC50 (Nitric oxide synthase 3) was 5.46 and the pIC50 (Nitric oxide synthase 1 [2]) was 7.46.
For `COC(=O)[C@@H](CCCNC(=N)N[N+](=O)[O-])NC(=O)[C@H](N)Cc1ccccc1` (H-[dF]-[dArg(NO2)]-OMe), the Ratio Ki [3] was 1800, the pKi (Nitric oxide synthase 1 [8]) was 5.72 and the Ratio Ki [4] was 2.6.
Compound `[O-][n+]1cccc(/C(Cl)=N/OC[C@H](O)CN2CCCCC2)c1` [ARIMOCLOMOL] has an Activity (Mus musculus) of 22%.
For `C[C@@H]([C@@H](O)c1ccc(O)cc1)N1CCC(O)(c2ccccc2)CC1` [TRAXOPRODIL], the Activity (Homo sapiens [9]) was 30%.
`Cc1ccc2c(c1)c1c(n2CCc2ccc(C)nc2)CCN(C)C1` [LATREPIRDINE] gave an IC50 (L-type calcium channel) of 50000 nM and a pIC50 [10] of 5.00.
With `Cc1ccc2[nH]c(=O)c(C3=NN(C(=O)CCC(=O)O)C(c4ccc(Br)cc4)C3)c(-c3ccccc3)c2c1` (stereo not given) the Ratio IC50 (Homo sapiens [11]) was > 50.
Work on `CC(C(O)c1ccc(O)cc1)N1CCC(Cc2ccccc2)CC1` (stereo not given) [IFENPRODIL] yielded a pIC50 [12] of 5.46.
For `N=C(NCCC[C@H](N)C(=O)O)N[N+](=O)[O-]` [NITROARGININE], the Ratio Ki [3] was 293 and the Ratio Ki [4] was 11.
In the case of `C[C@@H](CN1CCC(Cc2ccccc2)CC1)[C@@H](O)c1ccc(O)cc1`, the pIC50 [12] was 6.40.
Compound `Cc1cc2nc3ccc(N(C)C)cc3[s+]c2cc1N` [TOLONIUM CHLORIDE] has a pKi [13] of 7.16.
